The results in this text go back to patent US9040498B2, “1,2,3-Triazolyl purine derivatives” (RESEARCH FOUNDATION OF THE CITY UNIVERSITY OF NEW YORK, priority 2012, dated 2015).

Where two headings read alike, the source gives them in different places.

In general, EC50 refers to the concentration needed to bring the measured effect to its halfway point. Lower therefore signals higher potency in that assay. Usually GI50 stands for the concentration that inhibits growth by half. In general, IC50 refers to the point on the concentration scale where inhibition reaches its midpoint.

For data set [1], the system named is CMV Davis strain. Nature of the data set: Anti-CMV activity in HEL cell cultures, Davis strain. The class given is cell-based, cytomegalovirus. The following applies: reduce virus plaque formation by 50%.
Data set [2] deals with cytomegalovirus (CMV). Nature of the data set: Anti-CMV activity in HEL cells (both strains). It counts as cell-based. The following applies: HEL cells.
Data set [3] has as its system colorectal (HCT116) cancer cell line. Nature of the data set: GI50 against colorectal cancer cell line HCT116.
Data set [4] has as its system p53KO HCT116 cancer cell line. As to the kind of experiment: GI50 against p53KO HCT116 cancer cell line. The following applies: read-out: GI50 p53KO.
For data set [5], the system named is HEL cell. As to the kind of experiment: HEL cell effects: cell morphology (minimum cytotoxic concentration). The following applies: minimum cytotoxic concentration causing microscopically detectable alteration of cell morphology.
Data set [6] relates to ovarian (1A9) cancer cell line. Nature of the data set: GI50 against ovarian cancer cell line 1A9. The following applies: read-out: GI50 1A9.
For data set [7], the system named is paclitaxel-resistant (PTX10) ovarian cancer cell line. As to the kind of experiment: GI50 against paclitaxel-resistant ovarian cancer cell line PTX10.
Data set [8] has as its system paclitaxel-resistant (PTX22) ovarian cancer cell line. Nature of the data set: GI50 against paclitaxel-resistant ovarian cancer cell line PTX22. The following applies: read-out: GI50 PTX22.
Data set [9] concerns HEL cell. As to the kind of experiment: HEL cell effects: cell growth. The following applies: read-out: HEL cell effects cell growth (IC50); concentration required to reduce cell growth by 50%.
The subject of data set [10] is CMV AD-169 strain. As to the kind of experiment: Anti-CMV activity in HEL cell cultures, AD-169 strain. It counts as cell-based, cytomegalovirus. The following applies: reduce virus plaque formation by 50%.
The test system of data set [11] is murine leukemia L1210, human lymphocyte CEM, and HeLa cells. As to the kind of experiment: Cytostatic activity against L1210, CEM and HeLa cells. The class given is cell-based. The method, then: The cytostatic effects of the test compounds on murine leukemia cells (L1210), human T-lymphocyte cells (CEM) and human cervix carcinoma cells (HeLa) were evaluated as follows: an appropriate number of cells suspended in growth medium were allowed to proliferate in 200-μL-wells of 96-well-microtiter plates in the presence of variable amounts of test compounds at 37° C. in a humidified CO2-controlled atmosphere. After 48 h (L1210), 72 h (CEM) or 96 h (HeLa), the number of cells was counted in a Coulter counter. The IC50 value is defined as the concentration required to inhibit cell proliferation by 50%.

[12] abbreviates: read-out: GI50 HCT116, colorectal HCT116, four days.
Where [13] appears, read: read-out: GI50 PTX10, paclitaxel-resistant ovarian PTX10, four days.
Setting [14] is: paclitaxel-resistant ovarian PTX22, four days.
Where [15] appears, read: HEL cell cultures, virus input 100 PFU.

With `OC[C@H]1O[C@@H](n2cnc3c(O)nc(-n4cc(-c5ccccc5)nn4)nc32)C[C@@H]1O` [Compound 25, 2-[4-(Phenyl)-1,2,3-triazol-1H-yl]-2′-deoxyinosine], a half-maximal response in data set [1] ([…]) (EC50) required 158 µM. In data set [2], the “anti-CMV activity (in words)” value is “marginal activity”. Besides, the GI50 is above 50 µM in data set [3] (setting [12]); above 50 µM in data set [4] (p53KO HCT116, four days); 31 µM in data set [6] (ovarian 1A9, four days); above 50 µM in data set [7] (setting [13]); 14.8 µM in data set [8] (setting [14]). Further, in data set [5], the “HEL cell effects cell morphology (MDC)” value was above 250 μM. For the same molecule, in data set [9], the IC50 turned out to be 188 µM.
`CCCCc1cn(-c2nc(O)c3ncn([C@H]4C[C@H](O)[C@@H](CO)O4)c3n2)nn1` [Compound 30, 2-(4-n-Butyl-1,2,3-triazol-1H-yl)-2′-deoxyinosine]: the EC50 in data set [1] ([…]) and in data set [10] ([…]) was above 270 µM throughout. In addition, the GI50 in [3] (setting [12]) was above 50 µM; in [4] (p53KO HCT116, four days), above 50 µM; in [6] (ovarian 1A9, four days), 46.1 µM; in data set [7] (setting [13]), above 50 µM; in [8] (setting [14]), 26.9 µM. The “HEL cell effects cell morphology (MDC)” value in [5] is above 270 μM.
For `COc1ccc(-c2cn(-c3nc(O)c4ncn([C@H]5C[C@H](O)[C@@H](CO)O5)c4n3)nn2)cc1` [Compound 26, 2-[4-(4-Methoxyphenyl)-1,2,3-triazol-1H-yl]-2′-deoxyinosine], the EC50 in data set [1] ([…]) and in data set [10] ([…]) was above 240 µM in each case. The GI50 in data set [3] (setting [12]) was above 50 µM; in [4] (p53KO HCT116, four days) it was above 50 µM; in [6] (ovarian 1A9, four days), 37.2 µM; in [7] (setting [13]), above 50 µM; in data set [8] (setting [14]), 15.7 µM. In addition, the “HEL cell effects cell morphology (MDC)” value in data set [5] is listed as above 240 μM.
As to `O=C1c2ccccc2C(=O)N1Cc1cn(-c2nc(O)c3ncn([C@H]4C[C@H](O)[C@@H](CO)O4)c3n2)nn1` [Compound 28, 2-[4-(N-Phthalimidomethyl)-1,2,3-triazol-1H-yl]-2′-deoxyinosine], the EC50 in [1] ([…]) and in data set [10] ([…]) was above 210 µM each time. Further, the GI50 in [3] (setting [12]) was above 50 µM; in [4] (p53KO HCT116, four days), above 50 µM; in data set [6] (ovarian 1A9, four days) it was 49.6 µM; in data set [7] (setting [13]), above 50 µM; in [8] (setting [14]), 32.2 µM. The “HEL cell effects cell morphology (MDC)” value in data set [5] was above 210 μM.
As to `O=C1c2ccccc2C(=O)N1Cc1cn(-c2nc(O)c3ncn([C@@H]4O[C@H](CO)[C@@H](O)[C@H]4O)c3n2)nn1` [Compound 21, 2-[4-(N-Phthalimidomethyl)-1,2,3-triazol-1H-yl]inosine], the EC50 in data set [1] (setting [15]) is above 200 µM. In addition, the GI50 in [3] (setting [12]) was above 50 µM; in data set [4] (p53KO HCT116, four days), above 50 µM; in data set [6] (ovarian 1A9, four days), 6.32 µM; in [7] (setting [13]), above 50 µM; in [8] (setting [14]), 14.1 µM. In addition, the “HEL cell effects cell morphology (MDC)” value in [5] is given as above 200 μM. In addition, in data set [9], the IC50 is above 200 µM.
With `OC[C@H]1O[C@@H](n2cnc3c(NCc4ccccc4)nc(-n4cc(-c5ccccc5)nn4)nc32)[C@@H](O)C1O` (stereo partly drawn) [Compound 35, 6-(N-Benzyl)-2-[4-(phenyl)-1,2,3-triazol-1H-yl]adenosine], the EC50 in [1] (Human betaherpesvirus 5, HEL cell cultures, virus input 100 PFU) is above 40 µM; in data set [10] (Human betaherpesvirus 5, AD169, HEL cell cultures, virus input 100 PFU), above 40 µM. Besides, the “cytostatic activity (in words)” value in data set [11] (L1210, CEM, HeLa) is “poorly cytostatic”. In [11] (range over L1210 (48 h), CEM (72 h), HeLa (96 h)), the IC50 lay within 90 to 120 µM. Further, the GI50 in data set [3] (Homo sapiens, HCT-116, 96 h, read-out: GI50 HCT116) is 43.6 µM; in [4] (Homo sapiens, HCT-116, 96 h) it was above 50 µM; in data set [6] (96 h), 5 µM; in [7] (PTX10, 96 h, read-out: GI50 PTX10), above 50 µM; in [8] (96 h), 24.5 µM. The “HEL cell effects cell morphology (MDC)” value in [5] worked out at 200 μM.
Regarding `OCc1cn(-c2nc(O)c3ncn([C@@H]4O[C@H](CO)[C@@H](O)[C@H]4O)c3n2)nn1` [Compound 20, 2-[4-(Hydroxymethyl)-1,2,3-triazol-1H-yl]inosine], the EC50 in data set [1] (setting [15]) and in data set [10] (setting [15]) was above 270 µM each time. For the same molecule, the GI50 in data set [3] (setting [12]) is above 50 µM; in data set [4] (p53KO HCT116, four days), 42.6 µM; in data set [6] (ovarian 1A9, four days) it was 20.4 µM; in data set [7] (setting [13]), above 50 µM; in data set [8] (setting [14]) it was 3.53 µM. In addition, in [5], the “HEL cell effects cell morphology (MDC)” value is recorded as above 270 μM.
For the molecule “2-[4-(Ferrocenyl)-1,2,3-triazol-1H-yl]-2′-deoxyinosine [Compound 29]”, the GI50 is above 50 µM in data set [3] (setting [12]); above 50 µM in [4] (p53KO HCT116, four days); 41.6 µM in data set [6] (ovarian 1A9, four days); above 50 µM in [7] (setting [13]); 18 µM in data set [8] (setting [14]). Moreover, the “HEL cell effects cell morphology (MDC)” value in data set [5] was above 200 μM. For the same molecule, in data set [9], the IC50 is above 200 µM.
In the case of `OCc1cn(-c2nc(O)c3ncn([C@H]4C[C@H](O)[C@@H](CO)O4)c3n2)nn1` [Compound 27, 2-[4-(Hydroxymethyl)-1,2,3-triazol-1H-yl]-2′-deoxyinosine], the EC50 in data set [1] ([…]) and in [10] ([…]) was above 290 µM in each case. In addition, the GI50 in data set [3] (setting [12]) is above 50 µM; in data set [4] (p53KO HCT116, four days), above 50 µM; in data set [6] (ovarian 1A9, four days) it was 49.4 µM; in [7] (setting [13]), above 50 µM; in [8] (setting [14]), 32.9 µM. Also, the “HEL cell effects cell morphology (MDC)” value in data set [5] was above 290 μM.
Regarding `COc1ccc(-c2cn(-c3nc(O)c4ncn([C@@H]5O[C@H](CO)[C@@H](O)[C@H]5O)c4n3)nn2)cc1` [Compound 19, 2-[4-(4-Methoxyphenyl)-1,2,3-triazol-1H-yl]inosine], the concentration for 50% growth inhibition (GI50) in data set [3] (setting [12]) is above 50 µM; in data set [4] (p53KO HCT116, four days) it was above 50 µM; in [6] (ovarian 1A9, four days), 29.5 µM; in data set [7] (setting [13]) it was above 50 µM; in data set [8] (setting [14]) it was 8.56 µM. Besides, the “HEL cell effects cell morphology (MDC)” value in data set [5] is given as above 230 μM. The IC50 in data set [9] was above 230 µM.
Take `CC(=O)O[C@H]1C(=O)[C@@]2(C)[C@H]([C@H](OC(=O)c3ccccc3)[C@]3(O)C[C@H](OC(=O)[C@H](O)[C@@H](NC(=O)c4ccccc4)c4ccccc4)C(C)=C1C3(C)C)[C@]1(OC(C)=O)CO[C@@H]1C[C@@H]2O` [paclitaxel, reference compound]: the GI50 amounted to 0.00685 µM in data set [3] (Homo sapiens, HCT-116, read-out: GI50 HCT116); 0.00151 µM in [6]; 0.079 µM in [7] (PTX10, read-out: GI50 PTX10); 0.068 µM in data set [8].
With `Cc1ccc(-c2cn(-c3nc(O)c4ncn([C@@H]5O[C@H](CO)[C@@H](O)[C@H]5O)c4n3)nn2)cc1` [Compound 18, 2-[4-(4-Methylphenyl)-1,2,3-triazol-1H-yl]inosine], the EC50 was determined as 151 µM in data set [1] (setting [15]) and 118 µM in data set [10] (setting [15]). Besides, the “anti-CMV activity (in words)” value in data set [2] is listed as “marginal activity”. Further, the GI50 in data set [3] (setting [12]) is above 50 µM; in data set [4] (p53KO HCT116, four days), above 50 µM; in [6] (ovarian 1A9, four days), 38 µM; in [7] (setting [13]) it was above 50 µM; in data set [8] (setting [14]), 13.4 µM. In data set [5], the “HEL cell effects cell morphology (MDC)” value is listed as above 240 μM.
With `OC[C@H]1O[C@@H](n2cnc3c(O)nc(-n4cc(-c5ccc(F)cc5)nn4)nc32)[C@H](O)[C@@H]1O` [Compound 24, 2-[4-(4-Fluorophenyl)-1,2,3-triazol-1H-yl]inosine], the EC50 in data set [1] (setting [15]) and in data set [10] (setting [15]) was above 230 µM each time. Moreover, the 50% growth inhibitory concentration (GI50) in data set [3] (setting [12]) is above 50 µM; in data set [4] (p53KO HCT116, four days) it was above 50 µM; in data set [6] (ovarian 1A9, four days), 34 µM; in data set [7] (setting [13]), above 50 µM; in data set [8] (setting [14]), 31 µM. In addition, in [5], the “HEL cell effects cell morphology (MDC)” value is reported as above 230 μM.
